Data published in paper PMC3177597 (Bioorganic & medicinal chemistry letters, 2009).

Key:
[1] = biological target: MPEP allosteric binding site on mGluR5 (Rattus norvegicus, UniProt P31424); assay: Displacement of [3H]3-methoxy-5-
[2] = tested on: mGluRs 1, 2, 3, 4, 7 and 8; assay: Selectivity versus other mGluRs

MPEP allosteric binding site on mGluR5, sequence (P31424 21-1203): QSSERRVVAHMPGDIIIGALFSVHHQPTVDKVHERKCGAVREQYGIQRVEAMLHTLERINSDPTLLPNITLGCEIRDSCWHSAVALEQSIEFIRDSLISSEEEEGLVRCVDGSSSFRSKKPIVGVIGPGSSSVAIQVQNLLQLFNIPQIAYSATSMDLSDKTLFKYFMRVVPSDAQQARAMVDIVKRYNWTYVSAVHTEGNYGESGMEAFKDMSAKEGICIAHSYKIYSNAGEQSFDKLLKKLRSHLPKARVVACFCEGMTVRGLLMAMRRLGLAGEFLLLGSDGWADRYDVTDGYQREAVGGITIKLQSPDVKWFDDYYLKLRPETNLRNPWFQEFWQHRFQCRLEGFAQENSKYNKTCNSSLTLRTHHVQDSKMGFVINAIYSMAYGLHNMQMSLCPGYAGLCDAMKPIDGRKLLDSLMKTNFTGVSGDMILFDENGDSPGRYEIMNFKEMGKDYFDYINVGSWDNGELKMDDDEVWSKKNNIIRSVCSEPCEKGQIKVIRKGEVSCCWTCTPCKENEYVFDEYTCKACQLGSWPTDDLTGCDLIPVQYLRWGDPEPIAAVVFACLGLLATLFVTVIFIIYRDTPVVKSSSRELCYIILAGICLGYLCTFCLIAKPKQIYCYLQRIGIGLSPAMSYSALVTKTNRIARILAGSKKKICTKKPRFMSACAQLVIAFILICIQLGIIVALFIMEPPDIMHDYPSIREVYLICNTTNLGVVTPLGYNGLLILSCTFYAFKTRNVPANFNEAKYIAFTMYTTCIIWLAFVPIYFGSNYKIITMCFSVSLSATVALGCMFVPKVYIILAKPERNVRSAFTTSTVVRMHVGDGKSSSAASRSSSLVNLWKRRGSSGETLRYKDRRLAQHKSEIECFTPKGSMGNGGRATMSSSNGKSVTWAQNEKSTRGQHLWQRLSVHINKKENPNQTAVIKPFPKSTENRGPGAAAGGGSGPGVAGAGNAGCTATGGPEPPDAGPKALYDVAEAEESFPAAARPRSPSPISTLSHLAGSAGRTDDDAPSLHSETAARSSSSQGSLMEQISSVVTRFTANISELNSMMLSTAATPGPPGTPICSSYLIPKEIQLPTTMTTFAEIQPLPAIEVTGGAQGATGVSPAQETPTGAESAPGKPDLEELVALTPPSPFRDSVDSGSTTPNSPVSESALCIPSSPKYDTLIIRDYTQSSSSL

Ki [1] | SMILES | selectivity versus mGluRs 1, 2, 3, 4, 7 and 8 [2]
1100 nM | COc1ccccc1C(=O)Nc1cccc(NC(=O)c2cccc(Cl)c2)c1 [compound 8] | selective
319 nM | O=C(Nc1ccccc1O)c1cccc(N2C(=O)c3ccccc3C2=O)c1 [compound 9, 3-(phthalimidyl)-N-(2-hydroxyphenyl)benzamide] | selective
